Measurements reported in US20150072023A1, “[…] NITRIC OXIDE FOR TREATING RESPIRATORY DISEASES” (Advanced Inhalation Therapies (AIT) Ltd., priority 2013, published 2015).
“Also recorded” adds a separate entry of the source.

Legend:
[1] = topical 200 ppm gNO, within the first three days of treatment; cited from earlier work
[2] = in vivo; cited from earlier work
S. aureus = conditions: agar plates exposed to gNO; cited from earlier work
[3] = Prospective phase I open label safety study of intermittent 160 ppm gNO inhalation in healthy adults; assay type: in vivo, human
Source text: 10 healthy adult volunteer subjects (5 males, 5 females), aged 20 to 62 years, were enrolled in the study after screening their medical history, a physical examination, pulmonary function tests and blood values. Exclusion criteria included individuals less than 19 years of age, pregnant females and unwilling to practice birth control during the study, diagnosed with pulmonary disease, epistaxis, hemoptysis, methemoglobinemia, organ transplant recipient or receiving antibiotic therapy.
After obtaining informed consent, treatment was initiated within 5 days of enrollment. Subjects were housed in a hospital ward and received 160 ppm gNO for 30 minutes every four hours (Q4h), five times a day, for five consecutive days by inhalation. Subjects returned for follow-up evaluations 3, 7 and 21 days after the final gNO administration. Subject safety was determined by monitoring vital signs, methemoglobin levels, lung function, blood chemistry, hematology, prothrombin time, inflammatory cytokine/chemokines levels and endothelial activation. These parameters were compared to baseline and at various time-points during and after gNO administration.
Subjects were administered gNO through a modified disposable mouthpiece to maximize mixing. Inspiration was spontaneously initiated by the subject from a conventional intermittent positive pressure breathing respirator (Mark-7, Carefusion, USA) in fixed flow mode delivering 48 liters per minute (LPM). Flows of gas were verified with a calibrated mass flow meter (TSI, USA). Gaseous nitric oxide (gNO, obtained at INOmax, Ikaria, USA) at a concentration of 800 ppm delivered at a flow of 12 LPM was titrated into a distal delivery port on the mouth piece connected to the respirator during inspiratory phase only (pressure switch). The Mark 7 respirator was supplied by an air/oxygen blender (Bird Sentry, Carefusion, USA) set to deliver 26% oxygen.
The levels of gNO, NO2, O2 and methemoglobin were monitored during the administration of gNO. The target gas mixture was 160 ppm gNO with a nitrogen dioxide (NO2) level of less than 5 ppm and an oxygen (O2) level ranging from 21% to 25%. Inspiratory NO, NO2 and O2 levels were continuously monitored by sampling from the mouthpiece sample port located about 6 millimeters from the mouth of the subject with an AeroNOx (Pulmonox, AB, Canada) NO, NO2 and O2 electrochemical analyzer. Delivery safety was determined by the number of occasions that NO2 exceeded 5 ppm, gNO exceeding 10% variation and O2 dropping below 20% during gNO administration. A commercially available noninvasive pulse oximeter (Rad 57, Masimo Corporation, USA) was used to measure saturation levels at the periphery of methemoglobin (SpMet).
These parameters were measured continuously during every gNO administration course and for 3.5 hours after the first treatment of the day. Daily serum samples were collected and frozen at −80° C. and the serum […] level was measured using the Griess reagent.
Subjects underwent full pulmonary function tests (PFT), including lung diffusing capacity (DLCO) by a trained technician utilizing a calibrated pulmonary function system (Jaeger MasterScreen, VIASYS Healthcare, USA) on screening and days 2, 8, 12 and 26. Spirometry test (Microloop by Micro Medical, England) was performed on days 1, 3 and 4. Effect of gNO on lung function and DLCO was determined by changes from baseline, treatment days and follow up days.
General medical examinations were performed by a pulmonary physician on screening and on days 8, 12 and 26 to obtain oxygenation and vital sign measurements. Abbreviated physical examination by a registered nurse was carried out each day prior to initiation of treatments on days 1-5. Oxygenation was measured with a pulse oximeter (Rad 57, Masimo Corporation, USA) which was used according to manufacturer's guidelines to measure functional oxygen saturation of arterial hemoglobin (SpO2) and heart rate. […]

[4] = tested on: highly pathogenic Avian Influenza H7N3; conditions: cited from earlier work
[5] = cited from earlier work
[6] = tested on: human respiratory syncytial virus (rgRSV30); assay: Plaque assay of gNO-exposed respiratory syncytial virus; assay type: cell-based; conditions: 160 ppm exogenous gaseous NO
[7] = tested on: five planktonic species of methicillin resistant S. aureus (MRSA); conditions: 1,600 ppm hours of gNO; cited from earlier work
[8] = tested on: influenza A/victoria/H3N2; conditions: 160 ppm exogenous gNO, MDCK cell model; cited from earlier work
[9] = 300 ppm gNO, first 1-2 days, group of 10 rats; cited from earlier work
P. aeruginosa = conditions: agar plates exposed to gNO; cited from earlier work
[10] = Randomized double blind study of intermittent gNO inhalation in infants with bronchiolitis, interim results; assay type: in vivo, human; conditions: infants 2-12 months
Source text: The following is an exemplary protocol for clinical studies based on the methods according to embodiments of the present invention, aimed at treatment of bronchiolitis in humans. Specifically, the topic of the study is a randomized double blind evaluation of efficacy, safety and tolerability of nitric oxide given intermittently via inhalation to subjects with bronchiolitis.
An improvised inhalation device is based on standard hospital equipment and hospital oxygen source. For example, oxygen is supplied from the main hospital oxygen system via an oxygen blender, such as for example, Bird model 03800, followed by a hospital's oxygen mass flow meter. The oxygen-rich air is monitored so as to reach a maximal final concentration of about 40% O2. The blended air/oxygen is supplied to the subject via a Y-shape connector attached next to a standard hospital face mask such as for example, a Hospiltak mask by Unomedical Inc.
gNO flow, tapped from a tank containing 800 ppm nitric oxide in 99.999% pure N2, supplied by an authorized gas provider in, for example, 50 or 30 litter containers with 120 bar or 150 bar respectively, is adjusted by passing through a standard hospital's regulator, such as for example CareFusion™ model 400, and the hospital mass flow meter, such as a CareFusion™ model 77063.
The gNO flow is adjusted before each inhalation cycle based on the gNO concentration detected in the subject's mask. After a fresh system calibration, the regulator and the mass flow meter are adjusted to deliver 160 ppm of gNO at 5 to 15 liters per minute. gNO is supplied to the subject via the second arm of the Y shaped connector (specified above) attached next to the face mask. Mask and tubing ports are used to monitor continuously gNO and NO2 concentrations and FiO2 values delivered to the subject.
Halitus (exhalation) is monitored by, for example, end-tidal CO2 (EtCO2). EtCO2 is monitored using standard equipment such as Microcap® Portable Capnography Monitor, Cat.# CSO4179 by Oridion, Israel, with nasal prongs such as (Infant Neonate Cat.#008179 by Oridion, Israel.
Methemoglobin (SpMet) and oxygen saturation or dissolved oxygen (SpO2) levels are monitored continuously using a dedicated monitor such as for example RAD 57 by Masimo.
The population for the study is 44 children of 2-12 months old diagnosed with bronchiolitis, whom required hospitalization (expected dropout rate is 10%). The population is split into two groups: Group 1, referred to as the treatment group, receives intermittent (5×30 minutes, a day) inhalation of 160 ppm gNO in addition to the standard treatment of O2 administration, for up to 5 days. Between gNO inhalations, the subjects continue to receive the standard inhalation treatment (O2). Group 2, referred to as the control group, receives continuous inhalation of the standard treatment (O2).
Group 1 (treatment group) receives the standard treatment (O2) combined with the inhalation via face mask of […] administered for 30 minutes every four hours, keeping a minimum of 3 hours between the end of one gNO inhalation cycle and the beginning of the next cycle, five times a day for five consecutive days or until a decision to discontinue therapy. The maximal cumulative exposure to nitric oxide is estimate at 2,000 ppm hours.

[11] = 250 gNO administration procedures, 10 subjects
[12] = during and after gNO administration

## [N]=O [gNO, nitric oxide]
[1]
  biofilm: no longer visibly present
[2]
  radius of action from its site of origin: approximately 200 microns
S. aureus
  effect on bacterial growth: bacteristatic effect
[3]; 160 ppm gNO for 30 minutes, ten individuals
  average increase of SpMet in a single treatment course: 0.9%
[3]; [11]
  adverse events / tolerability: do not cause lung injury or other signs of adverse effects in humans; also recorded: Neither significant adverse events nor adverse events attributable to gNO inhalation occurred; also recorded: safe and well tolerated; also recorded: no significant adverse events were observed
  number of minor adverse events reported: Three
[3]; cytometric bead array, vs baseline
  plasma cytokine levels of TNF, IL-6, IL-8, IL-10, IL-1b and IL-12p70: unaffected; also recorded: remained constant
[3]; [12]
  pulmonary function tests: impacts lung function only minimally; also recorded: remained unchanged compared to baseline values
  vital signs: remained well within acceptable clinical margins
[3]; five daily treatments for five consecutive days, follow-up 3, 7 and 21 days
  accumulative or residual effect on SpMet: no accumulative or lingering effect; also recorded: did not show any residual increase in SpMet
[3]; plasma, vs baseline
  vascular endothelial activation factors Ang-1, Ang-2, Ang-2/Ang-1 ratio: not affected; also recorded: unaffected
[4]
  viral replication and infectivity: reduced their infectivity; also recorded: capable of reducing the infectivity
[5]; OSHA / Environmental Protection Agency
  inhalation threshold limit value (TLV) as time-weighted average (TWA): 25 ppm
[5]; calculated
  TLV-TWA in ppm hours units: 200 ppm hours
[6]
  infectivity: reduced their infectivity
[7]
  bacterial population: reduction in the population
[8]
  viral replication and infectivity: reduced their infectivity; also recorded: capable of reducing the infectivity
[9]
  number of animals that died: Six
P. aeruginosa
  effect on bacterial growth: bacteristatic effect
[10]
  NO2 levels during treatment: below 2 ppm
  pre-methemoglobin levels in each treatment: less than 5%
  premature withdrawal due to NO related adverse effect: no infant withdrew prematurely
  tolerability: All patients tolerated the NO treatment
[10]; 160 ppm gNO 30 min
  time for SpMet to return to the baseline levels: 210 min
